Activity calls are given as the source filed them. The calls are words filed in the database; no cut-off is given here.

From ChEMBL document CHEMBL5715954, “Silencing c-Myc translation as a therapeutic strategy through targeting PI3Kδ and CK1ε in hematological malignancies” (Blood, 2017) come the findings set out here.

This assay has as its target mTORC1 (Homo sapiens) (UniProt P42345+Q8N122+Q9BVC4). The assay is described as follows: Inhibition of mTORC1 in human OCILY7 cells transfected with c-Myc-expressing plasmid (M+) assessed as reduction in endogenous c-Myc expression at 3 to 5 uM incubated for 24 hrs in presence of carfilzomib by Western blot analysis. Format: cell-based. The conditions noted are these: dose 3-5 µM. In general terms: In western blotting, separated proteins are transferred to a membrane and probed.

Chain of mTORC1 (Homo sapiens) (Q8N122 whole entry, looked up, other chains not shown): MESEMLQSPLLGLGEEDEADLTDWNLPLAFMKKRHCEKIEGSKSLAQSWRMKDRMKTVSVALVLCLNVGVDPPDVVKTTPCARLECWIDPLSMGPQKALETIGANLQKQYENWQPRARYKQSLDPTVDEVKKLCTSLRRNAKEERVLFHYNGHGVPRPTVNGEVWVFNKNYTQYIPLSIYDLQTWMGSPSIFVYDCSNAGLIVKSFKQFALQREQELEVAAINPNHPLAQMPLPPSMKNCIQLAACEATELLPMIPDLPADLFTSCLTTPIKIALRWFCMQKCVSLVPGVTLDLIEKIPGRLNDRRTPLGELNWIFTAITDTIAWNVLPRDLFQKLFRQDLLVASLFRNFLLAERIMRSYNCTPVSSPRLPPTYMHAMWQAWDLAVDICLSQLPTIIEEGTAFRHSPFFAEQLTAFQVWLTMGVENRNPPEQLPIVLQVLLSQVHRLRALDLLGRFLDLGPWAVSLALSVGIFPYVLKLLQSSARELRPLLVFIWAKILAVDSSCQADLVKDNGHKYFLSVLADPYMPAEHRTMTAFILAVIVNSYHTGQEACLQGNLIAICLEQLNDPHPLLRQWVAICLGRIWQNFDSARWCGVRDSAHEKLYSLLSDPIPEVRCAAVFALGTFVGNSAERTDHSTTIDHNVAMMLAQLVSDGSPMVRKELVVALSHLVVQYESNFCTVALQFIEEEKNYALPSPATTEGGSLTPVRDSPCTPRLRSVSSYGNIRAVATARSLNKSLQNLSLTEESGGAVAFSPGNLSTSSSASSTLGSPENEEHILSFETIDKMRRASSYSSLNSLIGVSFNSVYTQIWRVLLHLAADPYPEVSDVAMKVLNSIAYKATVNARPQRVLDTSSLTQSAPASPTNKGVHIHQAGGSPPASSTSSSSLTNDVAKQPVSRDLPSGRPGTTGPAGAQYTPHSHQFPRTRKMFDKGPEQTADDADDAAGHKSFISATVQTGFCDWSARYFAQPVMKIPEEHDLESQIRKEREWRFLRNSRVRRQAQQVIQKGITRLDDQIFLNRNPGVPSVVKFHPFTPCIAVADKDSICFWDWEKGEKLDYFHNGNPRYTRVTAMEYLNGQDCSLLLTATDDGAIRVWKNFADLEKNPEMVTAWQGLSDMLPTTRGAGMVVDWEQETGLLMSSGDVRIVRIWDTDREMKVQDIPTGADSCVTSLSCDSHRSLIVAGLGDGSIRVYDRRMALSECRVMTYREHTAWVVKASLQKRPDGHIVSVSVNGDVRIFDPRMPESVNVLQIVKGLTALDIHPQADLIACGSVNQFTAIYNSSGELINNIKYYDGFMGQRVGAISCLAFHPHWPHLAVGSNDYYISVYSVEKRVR
Chain of mTORC1 (Homo sapiens) (Q9BVC4 whole entry, looked up, other chains not shown): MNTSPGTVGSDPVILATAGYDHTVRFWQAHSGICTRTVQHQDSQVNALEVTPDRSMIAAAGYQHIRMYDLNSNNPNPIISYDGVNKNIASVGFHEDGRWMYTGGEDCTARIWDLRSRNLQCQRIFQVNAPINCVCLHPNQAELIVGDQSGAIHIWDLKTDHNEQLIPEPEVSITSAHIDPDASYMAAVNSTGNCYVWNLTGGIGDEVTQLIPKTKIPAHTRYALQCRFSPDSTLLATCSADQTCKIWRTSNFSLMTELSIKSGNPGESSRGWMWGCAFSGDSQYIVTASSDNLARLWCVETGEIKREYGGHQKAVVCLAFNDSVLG

Consider `CC(C)Oc1ccc(-c2nn([C@@H](C)c3oc4ccc(F)cc4c(=O)c3-c3cccc(F)c3)c3ncnc(N)c23)cc1F` [UMBRALISIB], for which the inhibition entry is “inactive”.
